What follows are compounds tested against CSNK1A1 (human) (UniProt P48729) (assay: radiometric filter-binding kinase assay, Kinase HotSpot). Conditions: compound 0.5 µM; ATP 10 µM.

SMILES	residual activity [%]
Cc1ccc(NC(=O)c2ccc(CN3CCN(C)CC3)cc2)cc1Nc1nc(-c2cccnc2)cs1	98.5
COc1ccc(-c2cnc3c(-c4ccsc4)cnn3c2)cc1	101

Each compound was assayed against PRKCZ (human) (UniProt Q05513) in the same assay as above. Conditions: compound 0.5 µM; ATP 10 µM.

SMILES	residual activity [%]
O=C1Cc2c([nH]c3ccc([N+](=O)[O-])cc23)-c2ccccc2N1	109
Oc1ccc(-c2nc(-c3ccc(F)cc3)c(-c3ccncc3)[nH]2)cc1	109
Cc1ccc(NC(=O)c2ccc(CN3CCN(C)CC3)cc2)cc1Nc1nc(-c2cccnc2)cs1	103
COc1ccc(-c2cnc3c(-c4ccsc4)cnn3c2)cc1	107

Each compound was assayed against DYRK4 (human) (UniProt Q9NR20) in the same assay as above. Conditions: compound 0.5 µM; ATP 10 µM.
Chain of DYRK4 (human) (Q9NR20 whole entry, looked up): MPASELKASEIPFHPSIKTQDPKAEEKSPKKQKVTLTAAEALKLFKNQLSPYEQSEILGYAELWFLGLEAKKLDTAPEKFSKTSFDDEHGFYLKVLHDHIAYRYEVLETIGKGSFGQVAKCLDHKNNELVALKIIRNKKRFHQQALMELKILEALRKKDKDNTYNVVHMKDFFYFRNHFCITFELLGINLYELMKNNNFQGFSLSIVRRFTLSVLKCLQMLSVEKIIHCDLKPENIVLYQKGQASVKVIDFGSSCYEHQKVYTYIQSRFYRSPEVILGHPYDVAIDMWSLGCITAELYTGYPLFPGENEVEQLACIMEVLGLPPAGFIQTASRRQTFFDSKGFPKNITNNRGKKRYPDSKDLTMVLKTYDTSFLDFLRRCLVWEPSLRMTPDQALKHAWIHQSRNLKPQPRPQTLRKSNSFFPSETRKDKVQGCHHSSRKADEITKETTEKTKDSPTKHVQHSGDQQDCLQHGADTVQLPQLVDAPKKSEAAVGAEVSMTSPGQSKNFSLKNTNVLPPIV

SMILES	residual activity [%]
O=C1Cc2c([nH]c3ccc([N+](=O)[O-])cc23)-c2ccccc2N1	106
Oc1ccc(-c2nc(-c3ccc(F)cc3)c(-c3ccncc3)[nH]2)cc1	101
Cc1ccc(NC(=O)c2ccc(CN3CCN(C)CC3)cc2)cc1Nc1nc(-c2cccnc2)cs1	100
COc1ccc(-c2cnc3c(-c4ccsc4)cnn3c2)cc1	129

The compounds below were run against LCK (human) (UniProt P06239) in the same assay as above. Conditions: compound 0.5 µM; ATP 10 µM.
Chain of LCK (human) (P06239 whole entry, looked up): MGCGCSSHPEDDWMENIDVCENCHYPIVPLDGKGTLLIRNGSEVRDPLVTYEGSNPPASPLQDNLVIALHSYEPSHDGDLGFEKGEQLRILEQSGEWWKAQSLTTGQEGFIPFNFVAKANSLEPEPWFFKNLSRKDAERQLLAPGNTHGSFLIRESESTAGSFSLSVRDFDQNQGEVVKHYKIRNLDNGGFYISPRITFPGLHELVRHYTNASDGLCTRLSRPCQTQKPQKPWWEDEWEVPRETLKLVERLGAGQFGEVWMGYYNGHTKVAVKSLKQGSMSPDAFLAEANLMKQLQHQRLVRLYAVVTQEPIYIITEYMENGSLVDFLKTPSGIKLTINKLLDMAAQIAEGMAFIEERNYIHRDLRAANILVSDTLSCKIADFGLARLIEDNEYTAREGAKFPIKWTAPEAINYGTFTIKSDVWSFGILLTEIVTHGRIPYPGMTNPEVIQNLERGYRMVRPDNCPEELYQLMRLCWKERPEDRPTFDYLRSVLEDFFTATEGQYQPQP

SMILES	residual activity [%]
O=C1Cc2c([nH]c3ccc([N+](=O)[O-])cc23)-c2ccccc2N1	81.2
Oc1ccc(-c2nc(-c3ccc(F)cc3)c(-c3ccncc3)[nH]2)cc1	92.6
Cc1ccc(NC(=O)c2ccc(CN3CCN(C)CC3)cc2)cc1Nc1nc(-c2cccnc2)cs1	7.63
COc1ccc(-c2cnc3c(-c4ccsc4)cnn3c2)cc1	81.6

Each compound was assayed against PAK1 (human) (UniProt Q13153) in the same assay as above. Conditions: compound 0.5 µM; ATP 10 µM.
Chain of PAK1 (human) (Q13153 whole entry, looked up): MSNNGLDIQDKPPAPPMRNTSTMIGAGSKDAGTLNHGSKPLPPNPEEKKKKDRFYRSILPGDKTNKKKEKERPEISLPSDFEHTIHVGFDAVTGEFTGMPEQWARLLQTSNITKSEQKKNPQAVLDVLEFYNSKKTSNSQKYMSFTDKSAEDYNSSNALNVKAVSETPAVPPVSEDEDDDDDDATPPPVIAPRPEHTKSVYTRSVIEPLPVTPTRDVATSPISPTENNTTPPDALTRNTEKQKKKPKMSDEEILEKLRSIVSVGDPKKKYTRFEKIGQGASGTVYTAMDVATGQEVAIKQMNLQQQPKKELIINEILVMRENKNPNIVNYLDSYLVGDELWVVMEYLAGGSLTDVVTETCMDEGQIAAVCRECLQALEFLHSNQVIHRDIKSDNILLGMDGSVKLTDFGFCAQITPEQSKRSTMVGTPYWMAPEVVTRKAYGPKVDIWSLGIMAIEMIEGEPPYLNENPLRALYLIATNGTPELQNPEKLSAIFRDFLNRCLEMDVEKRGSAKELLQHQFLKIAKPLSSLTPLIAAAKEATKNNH

SMILES	residual activity [%]
O=C1Cc2c([nH]c3ccc([N+](=O)[O-])cc23)-c2ccccc2N1	36.7
Oc1ccc(-c2nc(-c3ccc(F)cc3)c(-c3ccncc3)[nH]2)cc1	97.3
Cc1ccc(NC(=O)c2ccc(CN3CCN(C)CC3)cc2)cc1Nc1nc(-c2cccnc2)cs1	104
COc1ccc(-c2cnc3c(-c4ccsc4)cnn3c2)cc1	97

What follows are compounds tested against RPS6KA6 KD1 KD2 (human) (UniProt Q9UK32) in the same assay as above. Conditions: compound 0.5 µM; ATP 10 µM.
Chain of RPS6KA6 KD1 KD2 (human) (Q9UK32 whole entry, looked up): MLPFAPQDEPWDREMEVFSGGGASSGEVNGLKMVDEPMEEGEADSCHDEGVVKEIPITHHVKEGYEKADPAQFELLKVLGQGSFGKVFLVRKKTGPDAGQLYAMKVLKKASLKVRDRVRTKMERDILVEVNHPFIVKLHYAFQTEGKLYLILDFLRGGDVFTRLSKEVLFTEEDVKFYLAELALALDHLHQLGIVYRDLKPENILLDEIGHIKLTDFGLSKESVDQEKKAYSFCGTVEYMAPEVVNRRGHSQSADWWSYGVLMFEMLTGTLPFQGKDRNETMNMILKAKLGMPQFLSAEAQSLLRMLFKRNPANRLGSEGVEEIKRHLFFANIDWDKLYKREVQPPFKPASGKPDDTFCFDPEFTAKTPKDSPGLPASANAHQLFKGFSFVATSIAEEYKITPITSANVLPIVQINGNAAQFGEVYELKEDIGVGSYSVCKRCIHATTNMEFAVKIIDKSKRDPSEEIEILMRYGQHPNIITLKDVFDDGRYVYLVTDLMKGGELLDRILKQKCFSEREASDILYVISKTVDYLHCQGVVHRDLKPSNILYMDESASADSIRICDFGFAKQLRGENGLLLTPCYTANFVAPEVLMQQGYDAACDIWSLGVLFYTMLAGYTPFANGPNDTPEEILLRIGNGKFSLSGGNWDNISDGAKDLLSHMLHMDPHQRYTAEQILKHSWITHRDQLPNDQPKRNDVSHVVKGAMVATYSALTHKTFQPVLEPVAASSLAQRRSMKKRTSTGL

SMILES	residual activity [%]
O=C1Cc2c([nH]c3ccc([N+](=O)[O-])cc23)-c2ccccc2N1	38
Oc1ccc(-c2nc(-c3ccc(F)cc3)c(-c3ccncc3)[nH]2)cc1	110
Cc1ccc(NC(=O)c2ccc(CN3CCN(C)CC3)cc2)cc1Nc1nc(-c2cccnc2)cs1	103
COc1ccc(-c2cnc3c(-c4ccsc4)cnn3c2)cc1	90.7

These compounds were tested against STK3 (human) (UniProt Q13188) in the same assay as above. Conditions: compound 0.5 µM; ATP 10 µM.

SMILES	residual activity [%]
O=C1Cc2c([nH]c3ccc([N+](=O)[O-])cc23)-c2ccccc2N1	70.3
Oc1ccc(-c2nc(-c3ccc(F)cc3)c(-c3ccncc3)[nH]2)cc1	105
Cc1ccc(NC(=O)c2ccc(CN3CCN(C)CC3)cc2)cc1Nc1nc(-c2cccnc2)cs1	94.4
COc1ccc(-c2cnc3c(-c4ccsc4)cnn3c2)cc1	97.7

These compounds were tested against MAP3K2 (human) (UniProt Q9Y2U5) in the same assay as above. Conditions: compound 0.5 µM; ATP 10 µM.
Chain of MAP3K2 (human) (Q9Y2U5 whole entry, looked up): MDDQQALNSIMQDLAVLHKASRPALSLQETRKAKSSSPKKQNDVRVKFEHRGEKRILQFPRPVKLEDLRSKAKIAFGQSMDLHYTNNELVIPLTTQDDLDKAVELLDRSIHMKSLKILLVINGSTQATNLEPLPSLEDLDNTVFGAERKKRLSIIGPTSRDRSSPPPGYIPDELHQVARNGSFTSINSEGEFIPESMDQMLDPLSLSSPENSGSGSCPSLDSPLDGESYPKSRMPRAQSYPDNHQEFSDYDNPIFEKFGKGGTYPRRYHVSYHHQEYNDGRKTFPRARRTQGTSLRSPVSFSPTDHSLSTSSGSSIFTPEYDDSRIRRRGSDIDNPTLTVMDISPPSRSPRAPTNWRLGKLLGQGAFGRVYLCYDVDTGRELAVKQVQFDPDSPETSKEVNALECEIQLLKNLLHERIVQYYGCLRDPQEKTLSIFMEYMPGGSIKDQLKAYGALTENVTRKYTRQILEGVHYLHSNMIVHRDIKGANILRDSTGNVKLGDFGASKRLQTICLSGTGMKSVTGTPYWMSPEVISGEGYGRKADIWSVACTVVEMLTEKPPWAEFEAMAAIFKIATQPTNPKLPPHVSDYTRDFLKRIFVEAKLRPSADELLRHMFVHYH

SMILES	residual activity [%]
O=C1Cc2c([nH]c3ccc([N+](=O)[O-])cc23)-c2ccccc2N1	78
Oc1ccc(-c2nc(-c3ccc(F)cc3)c(-c3ccncc3)[nH]2)cc1	95
Cc1ccc(NC(=O)c2ccc(CN3CCN(C)CC3)cc2)cc1Nc1nc(-c2cccnc2)cs1	102
COc1ccc(-c2cnc3c(-c4ccsc4)cnn3c2)cc1	98.7

Each compound was assayed against ROCK1 (human) (UniProt Q13464) in the same assay as above. Conditions: compound 0.5 µM; ATP 10 µM.
Chain of ROCK1 (human) (Q13464 whole entry, looked up): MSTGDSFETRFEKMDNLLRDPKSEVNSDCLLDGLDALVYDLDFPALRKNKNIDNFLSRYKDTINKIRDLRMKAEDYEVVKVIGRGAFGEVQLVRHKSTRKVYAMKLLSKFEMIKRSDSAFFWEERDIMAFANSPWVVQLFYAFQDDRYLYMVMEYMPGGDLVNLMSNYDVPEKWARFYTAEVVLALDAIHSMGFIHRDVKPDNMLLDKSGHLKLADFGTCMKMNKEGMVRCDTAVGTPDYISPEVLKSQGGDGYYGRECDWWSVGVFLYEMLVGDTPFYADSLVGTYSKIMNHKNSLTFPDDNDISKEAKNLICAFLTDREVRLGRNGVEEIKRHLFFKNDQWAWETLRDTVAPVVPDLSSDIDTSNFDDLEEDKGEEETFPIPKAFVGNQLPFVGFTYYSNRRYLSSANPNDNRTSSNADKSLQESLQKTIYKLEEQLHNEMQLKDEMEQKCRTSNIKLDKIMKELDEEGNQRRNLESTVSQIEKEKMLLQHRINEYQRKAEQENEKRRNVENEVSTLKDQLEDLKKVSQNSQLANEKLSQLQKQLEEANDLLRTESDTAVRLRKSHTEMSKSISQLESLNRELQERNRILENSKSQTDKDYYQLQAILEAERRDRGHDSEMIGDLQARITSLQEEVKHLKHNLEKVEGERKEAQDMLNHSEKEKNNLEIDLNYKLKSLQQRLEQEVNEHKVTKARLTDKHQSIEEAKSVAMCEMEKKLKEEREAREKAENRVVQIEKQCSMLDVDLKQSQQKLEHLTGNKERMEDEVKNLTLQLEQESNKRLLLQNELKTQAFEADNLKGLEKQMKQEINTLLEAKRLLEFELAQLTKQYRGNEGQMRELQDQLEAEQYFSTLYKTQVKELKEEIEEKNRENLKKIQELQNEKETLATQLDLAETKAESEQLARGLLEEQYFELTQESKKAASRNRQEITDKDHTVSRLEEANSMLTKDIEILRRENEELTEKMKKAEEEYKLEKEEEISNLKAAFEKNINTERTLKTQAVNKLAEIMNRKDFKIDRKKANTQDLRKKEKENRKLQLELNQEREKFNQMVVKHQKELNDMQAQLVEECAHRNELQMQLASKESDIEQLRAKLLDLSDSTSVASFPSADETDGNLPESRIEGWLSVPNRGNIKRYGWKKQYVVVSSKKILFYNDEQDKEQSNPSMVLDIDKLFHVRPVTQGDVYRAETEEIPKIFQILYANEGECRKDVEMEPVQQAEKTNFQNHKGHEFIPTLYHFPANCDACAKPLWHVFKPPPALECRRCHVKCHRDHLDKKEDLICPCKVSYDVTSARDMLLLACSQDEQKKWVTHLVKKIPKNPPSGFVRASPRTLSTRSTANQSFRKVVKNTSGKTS

SMILES	residual activity [%]
O=C1Cc2c([nH]c3ccc([N+](=O)[O-])cc23)-c2ccccc2N1	91.2
Oc1ccc(-c2nc(-c3ccc(F)cc3)c(-c3ccncc3)[nH]2)cc1	101
Cc1ccc(NC(=O)c2ccc(CN3CCN(C)CC3)cc2)cc1Nc1nc(-c2cccnc2)cs1	102
COc1ccc(-c2cnc3c(-c4ccsc4)cnn3c2)cc1	95.7

The compounds below were run against PKN2 (human) (UniProt Q16513) in the same assay as above. Conditions: compound 0.5 µM; ATP 10 µM.

SMILES	residual activity [%]
O=C1Cc2c([nH]c3ccc([N+](=O)[O-])cc23)-c2ccccc2N1	74.5
Oc1ccc(-c2nc(-c3ccc(F)cc3)c(-c3ccncc3)[nH]2)cc1	101
Cc1ccc(NC(=O)c2ccc(CN3CCN(C)CC3)cc2)cc1Nc1nc(-c2cccnc2)cs1	108
COc1ccc(-c2cnc3c(-c4ccsc4)cnn3c2)cc1	107

The compounds below were run against DYRK3 (human) (UniProt O43781) in the same assay as above. Conditions: compound 0.5 µM; ATP 10 µM.
Chain of DYRK3 (human) (O43781 whole entry, looked up): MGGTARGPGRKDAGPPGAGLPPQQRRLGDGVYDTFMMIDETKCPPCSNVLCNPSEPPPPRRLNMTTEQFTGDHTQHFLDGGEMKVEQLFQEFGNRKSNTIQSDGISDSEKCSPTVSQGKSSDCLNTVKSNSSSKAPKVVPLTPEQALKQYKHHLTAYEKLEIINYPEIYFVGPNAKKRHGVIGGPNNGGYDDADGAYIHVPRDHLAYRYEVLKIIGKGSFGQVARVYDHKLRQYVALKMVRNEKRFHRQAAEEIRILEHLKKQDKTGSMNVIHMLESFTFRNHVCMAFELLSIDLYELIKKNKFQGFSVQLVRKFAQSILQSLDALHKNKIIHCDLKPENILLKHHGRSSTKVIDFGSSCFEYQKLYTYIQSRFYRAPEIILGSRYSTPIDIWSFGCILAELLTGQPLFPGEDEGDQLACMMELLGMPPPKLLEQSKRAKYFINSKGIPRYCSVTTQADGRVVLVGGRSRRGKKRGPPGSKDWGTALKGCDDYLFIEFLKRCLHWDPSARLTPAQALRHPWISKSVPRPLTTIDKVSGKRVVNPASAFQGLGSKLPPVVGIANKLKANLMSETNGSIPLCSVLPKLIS

SMILES	residual activity [%]
O=C1Cc2c([nH]c3ccc([N+](=O)[O-])cc23)-c2ccccc2N1	99.3
Oc1ccc(-c2nc(-c3ccc(F)cc3)c(-c3ccncc3)[nH]2)cc1	101
Cc1ccc(NC(=O)c2ccc(CN3CCN(C)CC3)cc2)cc1Nc1nc(-c2cccnc2)cs1	108
COc1ccc(-c2cnc3c(-c4ccsc4)cnn3c2)cc1	89.9

Reference: the kinase profiling compilation of Christmann-Franck et al. (2016)
